Source: PubChem BioAssay (NCI)
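Method: 48-hour compound exposure of cells in 96-well plates, five concentrations, linear interpolation of endpoints. TGI denotes the concentration required for complete inhibition of growth.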

What was measured:
Assay in all cases: NCI-60 cell line screen, 48 h
MALME-3M melanoma = tested on: MALME-3M melanoma
UO-31 renal = tested on: UO-31 renal
NCI-H226 lung = tested on: NCI-H226 lung
IGROV1 ovarian = tested on: IGROV1 ovarian
HCT-15 colon = tested on: HCT-15 colon
SR leukemia = tested on: SR leukemia
SK-MEL-2 melanoma = tested on: SK-MEL-2 melanoma
HCC-2998 colon = tested on: HCC-2998 colon
HL-60(TB) leukemia = tested on: HL-60(TB) leukemia
MDA-MB-435 = tested on: MDA-MB-435
MCF7 breast = tested on: MCF7 breast
MDA-MB-231 breast = tested on: MDA-MB-231 breast
RXF 393 renal = tested on: RXF 393 renal
MOLT-4 leukemia = tested on: MOLT-4 leukemia
HCT-116 colon = tested on: HCT-116 colon
UACC-62 melanoma = tested on: UACC-62 melanoma
A549 NSCLC = tested on: A549 NSCLC
CCRF-CEM leukemia = tested on: CCRF-CEM leukemia
NCI-H23 lung = tested on: NCI-H23 lung
HOP-62 NSCLC = tested on: HOP-62 NSCLC

Compound | TGI (MALME-3M melanoma) [µM] | TGI (UO-31 renal) [µM] | TGI (NCI-H226 lung) [µM] | TGI (IGROV1 ovarian) [µM] | TGI (HCT-15 colon) [µM] | TGI (SR leukemia) [µM] | TGI (SK-MEL-2 melanoma) [µM] | TGI (HCC-2998 colon) [µM] | TGI (HL-60(TB) leukemia) [µM] | TGI (MDA-MB-435) [µM] | TGI (MCF7 breast) [µM] | TGI (MDA-MB-231 breast) [µM] | TGI (RXF 393 renal) [µM] | TGI (MOLT-4 leukemia) [µM] | TGI (HCT-116 colon) [µM] | TGI (UACC-62 melanoma) [µM] | TGI (A549 NSCLC) [µM] | TGI (CCRF-CEM leukemia) [µM] | TGI (NCI-H23 lung) [µM] | TGI (HOP-62 NSCLC) [µM]
Nc1nnc(-c2ccco2)c(-c2ccco2)n1 | > 100 | > 100 | > 100 | > 100 | > 100 | > 100 | > 100 | > 100 | > 100 | > 100 | > 100 | > 100 | > 100 | > 100 | > 100 | > 100 | > 100 | > 100 | > 100 | –
CCOC(=O)COc1ccc(/C=C/C(=O)c2ccc(OC)cc2)cc1 | 92.7 | 45.4 | – | > 100 | 77.3 | 87.4 | 85.8 | 48.7 | > 100 | 62.9 | > 100 | 88.3 | 46 | > 100 | 57.7 | 58.6 | > 100 | > 100 | 79.8 | 53.3
O=C(CC(C(=O)c1ccsc1)c1ccccc1)c1cccs1 (configuration not stated) | – | 95.7 | > 100 | > 100 | > 100 | > 100 | – | > 100 | > 100 | > 100 | 79.6 | > 100 | > 100 | > 100 | > 100 | > 100 | – | > 100 | 77.3 | > 100
Cc1cc(C2(c3cc(C)c(O)c(C(=O)O)c3)OS(=O)(=O)c3ccccc32)cc(C(=O)O)c1O | > 100 | > 100 | > 100 | > 100 | > 100 | > 100 | > 100 | – | > 100 | > 100 | > 100 | > 100 | > 100 | > 100 | > 100 | > 100 | > 100 | – | – | > 100
O=C1CCC[C@H]2O[C@@H](COCc3ccccc3)C[C@@H]12 | – | > 100 | > 100 | – | > 100 | > 100 | > 100 | – | > 100 | > 100 | > 100 | > 100 | – | > 100 | > 100 | > 100 | > 100 | > 100 | > 100 | > 100
NC(N)=NC(N)=Nc1c(F)c(F)c(F)c(F)c1F | > 100 | > 100 | > 100 | > 100 | > 100 | > 100 | > 100 | – | – | > 100 | > 100 | > 100 | > 100 | – | > 100 | > 100 | > 100 | – | > 100 | > 100
COc1cc2c(c(OC)c1OC)C(=O)[C@H]1OC(=O)N[C@@H]21 | – | > 100 | > 100 | – | > 100 | > 100 | > 100 | > 100 | > 100 | > 100 | > 100 | > 100 | > 100 | > 100 | > 100 | > 100 | > 100 | > 100 | > 100 | > 100
Cc1cc(C)c(C)c(-n2[nH]c(=O)n(C)c2=O)c1C | – | > 100 | > 100 | > 100 | > 100 | > 100 | > 100 | – | > 100 | > 100 | > 100 | > 100 | – | > 100 | > 100 | > 100 | > 100 | > 100 | > 100 | > 100
O=[N+]([O-])c1ccc(N=NN2CCCC2)cc1 | – | > 100 | > 100 | > 100 | > 100 | > 100 | > 100 | 20.6 | > 100 | > 100 | > 100 | > 100 | > 100 | > 100 | > 100 | > 100 | – | > 100 | > 100 | > 100
CN(C)c1ccc(/C=C/c2cc[n+](C)c3ccccc23)cc1 | 17.1 | > 73.3 | 16.2 | 21 | > 100 | 6.51 | 6.37 | 17 | – | 10.2 | 7.75 | 20.3 | 32.8 | > 38.3 | 8.62 | 12 | > 90.8 | > 61.9 | 12.5 | 16.3
CC1CC/C(=C\c2ccc(N(C)C)cc2)C(=O)/C1=C/c1ccc(N(C)C)cc1 (configuration not stated) | > 100 | > 100 | > 100 | > 100 | > 100 | > 100 | > 100 | > 100 | – | > 100 | > 100 | > 100 | – | > 100 | > 100 | > 100 | > 100 | > 100 | > 100 | > 100
COC1OC(COC(=O)NCCCCC(=O)C(F)(F)F)C(O)C(O)C1O (configuration not stated) | > 100 | > 100 | – | > 100 | > 100 | > 100 | > 100 | > 100 | > 100 | > 100 | > 100 | > 100 | > 100 | > 100 | > 100 | > 100 | > 100 | > 100 | > 100 | > 100
O=C(NCCNCCO)N/N=C/c1ccc([N+](=O)[O-])cc1 | > 100 | > 100 | > 100 | > 100 | > 100 | > 100 | > 100 | > 100 | > 100 | > 100 | > 100 | > 100 | – | > 100 | > 100 | > 100 | > 100 | > 100 | > 100 | > 100
COc1ccc(NCC(=O)Nn2c(C)nc3ccc(S(=O)(=O)Nc4ccc(OC)cc4)cc3c2=O)cc1 | > 100 | > 100 | > 100 | > 100 | > 100 | > 100 | > 100 | > 100 | > 100 | > 100 | > 100 | > 100 | – | > 100 | > 100 | > 100 | > 100 | > 100 | > 100 | > 100
O=C1N[C@@H]([C@H](CCCCCO)OC(=O)c2ccccc2)CO1 | – | > 100 | > 100 | > 100 | > 100 | > 100 | > 100 | – | > 100 | > 100 | > 100 | > 100 | > 100 | > 100 | > 100 | > 100 | > 100 | > 100 | – | > 100
C1=NCCOCCN=Cc2ccccc2OCc2cccc(n2)COc2ccccc21 | 22.5 | > 25 | – | > 25 | 16.5 | 9.91 | > 25 | – | 16.3 | 3.68 | 19.4 | 19.1 | > 25 | 18.4 | > 25 | 9.09 | > 25 | > 25 | > 25 | > 25
CSCC[C@H]1C(=O)N=C(N)N1C(=O)OCc1ccccc1 | > 100 | > 100 | 84.1 | > 100 | > 100 | 55.8 | > 100 | > 100 | 44.8 | > 100 | > 100 | > 100 | 45.6 | 51.5 | 37.7 | 63.9 | – | – | 55.4 | > 100
CN(/N=C/c1cccs1)c1ccc([N+](=O)[O-])cc1[N+](=O)[O-] | – | > 100 | – | > 100 | > 100 | > 100 | – | > 100 | > 100 | > 100 | > 100 | > 100 | > 100 | > 100 | > 100 | > 100 | > 100 | > 100 | > 100 | > 100
Cc1ccc(C(=O)C#Cc2cn(C3CC(O)C(CO)O3)c(=O)[nH]c2=O)cc1 (configuration not stated) | 29.1 | > 100 | > 100 | > 100 | > 100 | > 100 | > 100 | > 100 | – | > 100 | > 100 | > 100 | > 100 | – | > 100 | > 100 | > 100 | – | > 100 | > 100
COc1ccc(/C=C(\NC(=O)c2ccccc2)C(=O)NN(C)c2ccnc3cc(Cl)ccc23)cc1OC | 72.5 | 80.4 | 40.8 | 47.6 | 55.4 | 41.3 | 46 | – | – | 49.6 | 46.3 | 60.3 | 38.4 | 47.7 | > 100 | – | 97.1 | – | 62.8 | > 100
CN(C)Cc1cc(N=Nc2ccccc2Cl)cc(CN(C)C)c1O | – | > 100 | > 100 | > 100 | > 100 | > 100 | – | > 100 | 62.8 | > 100 | > 100 | > 100 | 88.3 | > 100 | > 100 | 64.1 | > 100 | 76.7 | > 100 | > 100
